{"source": "patent US7541020B2", "about": "“Aminoalkyl glucosaminide phosphate compounds and their use as adjuvants and immunoeffectors” (priority 1997, dated 2009)", "key": {"influenza A/HK/68": {"tested_on": "influenza A/HK/68", "assay_type": "in vivo, ICR mice"}, "E.G7 (OVA) cells": {"tested_on": "E.G7 (OVA) cells", "conditions": "s.c. 25 μg OVA in AGP preparation, spleen cells 21 days later"}, "IL-1β": {"tested_on": "IL-1β", "experiment": "Cytokine induction in human whole blood ex vivo culture: IL-1β (ELISA)", "assay_type": "cell-based", "conditions": "4 hr", "protocol": "(§1) AGP compounds were solubilized in 10% EtOH-water and diluted to various concentrations. Fifty μl of each dilution were added to 450 μl of whole human blood. Controls were treated with culture media (RPMI). The reaction mixture was incubated at 37° C. for 4 hr with constant mixing on a rotator. Sterile PBS (1.5 ml) was added to the reaction mixture, the cells were centrifuged and the supernatents removed for cytokine testing. The concentration of TNF-α and IL-1β in each supernatent was determined using immunoassay ELISA kits from R&D Systems."}, "TNF-α": {"tested_on": "TNF-α", "experiment": "Cytokine induction in human whole blood ex vivo culture: TNF-α (ELISA)", "assay_type": "cell-based", "conditions": "4 hr", "protocol": "as §1"}, "tetanus toxoid": {"tested_on": "tetanus toxoid", "conditions": "mouse, in vivo, sc"}, "[1]": {"conditions": "25 μg AGP + 1 HAU FI-Flu in 0.2% TEoA, once, bled day 14, Table 11"}}, "note": "Where two headings read alike, the source gives them in different places.", "data": [{"substance": "N-[(R)-3-Heptanoyloxytetradecanoyl]-O-[2-deoxy-4-O-phosphono-2-[(R)-3-heptanoyloxytetradecanoylamino]-3-O-[(R)-3-heptanoyloxytetradecanoyl]-β-D-glucopyranosyl]-L-serine Triethylammonium Salt [B18]", "values": [{"measurement": "Titer^−1 IgG1", "setting": "influenza A/HK/68; [1]", "result": 800}, {"measurement": "Titer^−1 IgG2a", "setting": "influenza A/HK/68; [1]", "result": 800}, {"measurement": "Titer^−1 IgG2b", "setting": "influenza A/HK/68; [1]", "result": 400}, {"measurement": "Titer^−1 Total IgG", "setting": "influenza A/HK/68; [1]", "result": 800}, {"measurement": "Percent Survival", "setting": "influenza A/HK/68; […], mortality 21 days, Table 11", "result": 20, "unit": "%"}, {"measurement": "% Cytotoxicity", "setting": "E.G7 (OVA) cells; E:T 12.5:1", "result": 15, "unit": "%"}, {"measurement": "% Cytotoxicity", "setting": "E.G7 (OVA) cells; E:T 25:1", "result": 20, "unit": "%"}, {"measurement": "% Cytotoxicity", "setting": "E.G7 (OVA) cells; E:T 50:1", "result": 36, "unit": "%"}]}, {"substance": "N-[(R)-3-Hexanoyloxytetradecanoyl]-O-[2-deoxy-4-O-phosphono-2-[(R)-3-decanoyloxytetradecanoylamino]-3-O-[(R)-3-decanoyloxytetradecanoyl]-α-D-glucopyranosyl]-L-serine Triethylammonium Salt [B37]", "values": [{"measurement": "% Cytotoxicity", "setting": "E.G7 (OVA) cells; E:T 12.5:1", "result": 6, "unit": "%"}, {"measurement": "% Cytotoxicity", "setting": "E.G7 (OVA) cells; E:T 25:1", "result": 8, "unit": "%"}, {"measurement": "% Cytotoxicity", "setting": "E.G7 (OVA) cells; E:T 50:1", "result": 12, "unit": "%"}]}, {"substance": "N-[(R)-3-Hexanoyloxytetradecanoyl]-O-[2-deoxy-4-O-phosphono-2-[(R)-3-decanoyloxytetradecanoylamino]-3-O-[(R)-3-hexanoyloxytetradecanoyl]-α-D-glucopyranosyl]-L-serine Triethylammonium Salt [B39]", "values": [{"measurement": "% Cytotoxicity", "setting": "E.G7 (OVA) cells; E:T 12.5:1", "result": 13, "unit": "%"}, {"measurement": "% Cytotoxicity", "setting": "E.G7 (OVA) cells; E:T 25:1", "result": 21, "unit": "%"}, {"measurement": "% Cytotoxicity", "setting": "E.G7 (OVA) cells; E:T 50:1", "result": 33, "unit": "%"}]}, {"substance": "N-[(R)-3-Hexanoyloxytetradecanoyl]-O-[2-deoxy-4-O-phosphono-2-[(R)-3-hexanoyloxytetradecanoylamino]-3-O-[(R)-3-decanoyloxytetradecanoyl]-α-D-glucopyranosyl]-L-serine Triethylammonium Salt [B38]", "values": [{"measurement": "% Cytotoxicity", "setting": "E.G7 (OVA) cells; E:T 12.5:1", "result": 16, "unit": "%"}, {"measurement": "% Cytotoxicity", "setting": "E.G7 (OVA) cells; E:T 25:1", "result": 25, "unit": "%"}, {"measurement": "% Cytotoxicity", "setting": "E.G7 (OVA) cells; E:T 50:1", "result": 38, "unit": "%"}]}, {"substance": "N-[(R)-3-Hydroxytetradecanoyl]-O-[2-deoxy-4-O-phosphono-2-[(R)-3-dodecanoyloxytetradecanoylamino]-3-O-[(R)-3-tetradecanoyloxytetradecanoyl]-α-D-glucopyranosyl]-L-serine Triethylammonium Salt [B43]", "values": [{"measurement": "% Cytotoxicity", "setting": "E.G7 (OVA) cells; E:T 12.5:1", "result": 6, "unit": "%"}, {"measurement": "% Cytotoxicity", "setting": "E.G7 (OVA) cells; E:T 25:1", "result": 12, "unit": "%"}, {"measurement": "% Cytotoxicity", "setting": "E.G7 (OVA) cells; E:T 50:1", "result": 19, "unit": "%"}]}, {"substance": "N-[(R)-3-Nonanoyloxytetradecanoyl]-O-[2-deoxy-4-O-phosphono-2-[(R)-3-nonanoyloxytetradecanoylamino]-3-O-[(R)-3-nonanoyloxytetradecanoyl]-β-D-glucopyranosyl]-L-serine Triethylammonium Salt [B16]", "values": [{"measurement": "IL-1β", "setting": "IL-1β; Dosage 500 ng/ml, Table 17", "result": 17.1, "unit": "pg/mL"}, {"measurement": "IL-1β", "setting": "IL-1β; Dosage 1000 ng/ml, Table 15", "result": 39, "unit": "pg/mL"}, {"measurement": "IL-1β", "setting": "IL-1β; Dosage 1000 ng/ml, Table 17", "result": 19.5, "unit": "pg/mL"}, {"measurement": "IL-1β", "setting": "IL-1β; Dosage 5000 ng/ml, Table 15", "result": 53, "unit": "pg/mL"}, {"measurement": "IL-1β", "setting": "IL-1β; Dosage 5000 ng/ml, Table 17", "result": 34.0, "unit": "pg/mL"}, {"measurement": "IL-1β", "setting": "IL-1β; Dosage 10,000 ng/ml, Table 15", "result": 55, "unit": "pg/mL"}, {"measurement": "IL-1β", "setting": "IL-1β; Dosage 10,000 ng/ml, Table 17", "result": 41.0, "unit": "pg/mL"}, {"measurement": "TNF-α", "setting": "TNF-α; Dosage 500 ng/ml, Table 17", "result": 55, "unit": "pg/mL"}, {"measurement": "TNF-α", "setting": "TNF-α; Dosage 1000 ng/ml, Table 15", "result": 155, "unit": "pg/mL"}, {"measurement": "TNF-α", "setting": "TNF-α; Dosage 1000 ng/ml, Table 17", "result": 72, "unit": "pg/mL"}, {"measurement": "TNF-α", "setting": "TNF-α; Dosage 5000 ng/ml, Table 15", "result": 277, "unit": "pg/mL"}, {"measurement": "TNF-α", "setting": "TNF-α; Dosage 5000 ng/ml, Table 17", "result": 114, "unit": "pg/mL"}, {"measurement": "TNF-α", "setting": "TNF-α; Dosage 10,000 ng/ml, Table 15", "result": 291, "unit": "pg/mL"}, {"measurement": "TNF-α", "setting": "TNF-α; Dosage 10,000 ng/ml, Table 17", "result": 121, "unit": "pg/mL"}, {"measurement": "Percent Survival", "setting": "influenza A/HK/68; mouse, in vivo", "result": 40, "unit": "%"}, {"measurement": "Titer^−1 IgG1", "setting": "influenza A/HK/68; mouse, in vivo", "result": 1600}, {"measurement": "Titer^−1 IgG2a", "setting": "influenza A/HK/68; mouse, in vivo", "result": 100}, {"measurement": "Titer^−1 IgG2b", "setting": "influenza A/HK/68; mouse, in vivo", "result": 800}, {"measurement": "Titer^−1 Total IgG", "setting": "influenza A/HK/68; mouse, in vivo", "result": 800}, {"measurement": "% Cytotoxicity", "setting": "E.G7 (OVA) cells; E:T 12.5:1", "result": 20, "unit": "%"}, {"measurement": "% Cytotoxicity", "setting": "E.G7 (OVA) cells; E:T 25:1", "result": 29, "unit": "%"}, {"measurement": "% Cytotoxicity", "setting": "E.G7 (OVA) cells; E:T 50:1", "result": 42, "unit": "%"}, {"measurement": "Anti-tetanus toxoid IgG2a T/C", "setting": "tetanus toxoid", "result": 66.8}, {"measurement": "Anti-tetanus toxoid IgG2a titer", "setting": "tetanus toxoid", "result": 1135}, {"measurement": "Anti-tetanus toxoid IgG2b T/C", "setting": "tetanus toxoid", "result": 104}, {"measurement": "Anti-tetanus toxoid IgG2b titer", "setting": "tetanus toxoid", "result": 6880}, {"measurement": "Anti-tetanus toxoid IgM T/C", "setting": "tetanus toxoid", "result": 1.6}, {"measurement": "Anti-tetanus toxoid IgM titer", "setting": "tetanus toxoid", "result": 2560}]}, {"substance": "N-[(R)-3-Undecanoyloxytetradecanoyl]-O-[2-deoxy-4-O-phosphono-2-[(R)-3-undecanoyloxytetradecanoylamino]-3-O-[(R)-3-undecanoyloxytetradecanoyl]-β-D-glucopyranosyl]-L-serine Triethylammonium Salt [B13]", "values": [{"measurement": "IL-1β", "setting": "IL-1β; Dosage 100 ng/ml, Table 17", "result": 261, "unit": "pg/mL"}, {"measurement": "IL-1β", "setting": "IL-1β; Dosage 500 ng/ml, Table 17", "result": 352, "unit": "pg/mL"}, {"measurement": "IL-1β", "setting": "IL-1β; Dosage 1000 ng/ml, Table 15", "result": 177, "unit": "pg/mL"}, {"measurement": "IL-1β", "setting": "IL-1β; Dosage 1000 ng/ml, Table 17", "result": 327, "unit": "pg/mL"}, {"measurement": "IL-1β", "setting": "IL-1β; Dosage 5000 ng/ml, Table 15", "result": 187, "unit": "pg/mL"}, {"measurement": "IL-1β", "setting": "IL-1β; Dosage 5000 ng/ml, Table 17", "result": 390, "unit": "pg/mL"}, {"measurement": "IL-1β", "setting": "IL-1β; Dosage 10,000 ng/ml, Table 15", "result": "THTC*"}, {"measurement": "IL-1β", "setting": "IL-1β; Dosage 10,000 ng/ml, Table 17", "result": 282, "unit": "pg/mL"}, {"measurement": "TNF-α", "setting": "TNF-α; Dosage 100 ng/ml, Table 17", "result": 302, "unit": "pg/mL"}, {"measurement": "TNF-α", "setting": "TNF-α; Dosage 500 ng/ml, Table 17", "result": 411, "unit": "pg/mL"}, {"measurement": "TNF-α", "setting": "TNF-α; Dosage 1000 ng/ml, Table 15", "result": 740, "unit": "pg/mL"}, {"measurement": "TNF-α", "setting": "TNF-α; Dosage 1000 ng/ml, Table 17", "result": 478, "unit": "pg/mL"}, {"measurement": "TNF-α", "setting": "TNF-α; Dosage 5000 ng/ml, Table 15", "result": 716, "unit": "pg/mL"}, {"measurement": "TNF-α", "setting": "TNF-α; Dosage 5000 ng/ml, Table 17", "result": 592, "unit": "pg/mL"}, {"measurement": "TNF-α", "setting": "TNF-α; Dosage 10,000 ng/ml, Table 15", "result": 775, "unit": "pg/mL"}, {"measurement": "TNF-α", "setting": "TNF-α; Dosage 10,000 ng/ml, Table 17", "result": 583, "unit": "pg/mL"}, {"measurement": "Percent Survival", "setting": "influenza A/HK/68; mouse, in vivo", "result": 50, "unit": "%"}, {"measurement": "Titer^−1 IgG1", "setting": "influenza A/HK/68; mouse, in vivo", "result": 800}, {"measurement": "Titer^−1 IgG2a", "setting": "influenza A/HK/68; mouse, in vivo", "result": 400}, {"measurement": "Titer^−1 IgG2b", "setting": "influenza A/HK/68; mouse, in vivo", "result": 800}, {"measurement": "Titer^−1 Total IgG", "setting": "influenza A/HK/68; mouse, in vivo", "result": 1600}, {"measurement": "% Cytotoxicity", "setting": "E.G7 (OVA) cells; E:T 12.5:1", "result": 10, "unit": "%"}, {"measurement": "% Cytotoxicity", "setting": "E.G7 (OVA) cells; E:T 25:1", "result": 15, "unit": "%"}, {"measurement": "% Cytotoxicity", "setting": "E.G7 (OVA) cells; E:T 50:1", "result": 28, "unit": "%"}, {"measurement": "Anti-tetanus toxoid IgG2a T/C", "setting": "tetanus toxoid", "result": 220}, {"measurement": "Anti-tetanus toxoid IgG2a titer", "setting": "tetanus toxoid", "result": 3740}, {"measurement": "Anti-tetanus toxoid IgG2b T/C", "setting": "tetanus toxoid", "result": ">208"}, {"measurement": "Anti-tetanus toxoid IgG2b titer", "setting": "tetanus toxoid", "result": ">13,760"}, {"measurement": "Anti-tetanus toxoid IgM T/C", "setting": "tetanus toxoid", "result": 3.9}, {"measurement": "Anti-tetanus toxoid IgM titer", "setting": "tetanus toxoid", "result": 6080}]}]}
